Experimental data from patent US20120295920A1, “5-AMINO-4-HYDROXYPENTOYL AMIDES” (priority 2009, published 2012).
Where two headings read alike, the source gives them in different places.

Key:
HIV-1 wild-type strain = assay: General antiviral assay, cell-based virus replication in MT4-LTR-EGFP cells, wild-type strain; conditions: wild-type strain IIIB, MT4-LTR-EGFP cells
Outline: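 HIV LTR-driven EGFP reporter MT4 cells (150,000 cells/ml) infected at MOI 0.0025 with or without inhibitor at various concentrations. Read-out either GFP fluorescence on day 3 post-infection or resazurin cell viability on day 4.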

[1] = test system: HIV-1 Strain A (M046I, I084V); assay: microbe, parasite or virus in culture; type: cell-based
Outline: (§1)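 MT4 cells stably carrying an HIV LTR-driven EGFP reporter (150,000 cells/ml) were infected at MOI 0.0025 with or without inhibitor dilutions. Replication was read either as GFP fluorescence on day 3 post-infection or as cell viability by resazurin on day 4.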

[2] = test system: HIV-1 Strain B (M046I, I050V); assay: microbe, parasite or virus in culture; type: cell-based
Outline: as §1

[3] = test system: HIV-1 Strain C (G048G/V, V082A); assay: microbe, parasite or virus in culture; type: cell-based
Outline: as §1

[4] = General toxicity assay on mock-infected MT4 cells with CMV-EGFP reporter (CC50); type: cell-based; conditions: human
HIV-1 IIIB = assay: 50% HS-Rezazurin: antiviral assay in the presence of 50% human serum, MT-4 cells, resazurin cell viability; type: cell-based
Outline: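 MT-4 cells infected with HIV-1 IIIB (MOI 0.001 to 0.01 CCID50/cell) for 1 h, washed, then plated onto serial compound dilutions in 50% human serum (10% FCS alternative). After 4 days, EC50 derived from resazurin cell viability.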

mock-infected MT4 cells = assay: General toxicity assay on mock-infected MT4 cells with CMV-EGFP reporter (CC50); type: cell-based
[5] = Human immunodeficiency virus 1, read-out: A EC50
[6] = Human immunodeficiency virus 1, read-out: B EC50
[7] = Human immunodeficiency virus 1, read-out: C EC50
[8] = MT4LTR cells, read-out: TOX-MT4LTR (CC50)
[9] = Human immunodeficiency virus 1, IIIB, MT4, 96 h
[10] = mock-infected MT4 cells with CMV-EGFP reporter, read-out: TOX-MT4CMV (CC50)
[11] = clinical isolate Strain A, read-out: A EC50
[12] = clinical isolate Strain B, read-out: B EC50
[13] = clinical isolate Strain C, read-out: C EC50

`COC(=O)N[C@H](C(=O)N[C@@H](Cc1ccc(-c2ccc(N(C)C)nc2)cc1)[C@@H](O)C[C@@H](Cc1ccccc1F)C(=O)N[C@H]1c2cc(F)cc(Cl)c2OC[C@H]1O)C(C)(C)C` [Compound 52] gave an EC50 (HIV-1 wild-type strain; Human immunodeficiency virus 1) of 1.8 nM, an EC50 [1, 5] of 1.2 nM and an EC50 [2, 6] of 0.9 nM. For the same compound, the EC50 [3, 7] was 0.7 nM, the CC50 [4, 8] was > 32000 nM and the EC50 (HIV-1 IIIB; [9]) was 6.2 nM. The melting point was 255.44 °C.

For `COC(=O)N[C@H](C(=O)N[C@@H](Cc1ccc(-c2ccc(OC)nc2)cc1)[C@@H](O)C[C@@H](Cc1ccccc1F)C(=O)N[C@H]1c2ccsc2CC[C@H]1O)C(C)(C)C` [Compound 93], the EC50 (HIV-1 wild-type strain; Human immunodeficiency virus 1) was 1.3 nM, the EC50 [1, 5] was 0.8 nM and the EC50 [2, 6] was 0.6 nM. The EC50 [3, 7] was 0.4 nM, the CC50 [4, 8] was > 32000 nM and the CC50 [4, 10] was > 32000 nM. For the same compound, the EC50 (HIV-1 IIIB; [9]) was 3.5 nM.

`COC(=O)N[C@H](C(=O)N[C@@H](Cc1ccc(-c2ccc(OC)nc2)cc1)[C@@H](O)C[C@@H](Cc1cccc(OC(F)(F)F)c1)C(=O)N[C@H]1c2cc(F)ccc2OC[C@H]1O)C(C)(C)C` [Compound 64] showed an EC50 (HIV-1 wild-type strain; Human immunodeficiency virus 1) of 2.6 nM, an EC50 [1, 5] of 3 nM and an EC50 [2, 6] of 1.6 nM. The EC50 [3, 7] was 1.3 nM, the CC50 [4, 8] was > 32000 nM and the EC50 (HIV-1 IIIB; [9]) was 15.1 nM.

In the case of `COC(=O)N[C@H](C(=O)N[C@@H](Cc1ccc(-c2cnc(C(C)C)s2)cc1)[C@@H](O)C[C@@H](Cc1ccccc1F)C(=O)N[C@H]1c2ccccc2OC[C@H]1O)C(C)(C)C` [Compound 38], the EC50 (HIV-1 wild-type strain; Human immunodeficiency virus 1) is reported as 7.1 nM, the EC50 [1, 5] is reported as 4.4 nM and the EC50 [2, 6] is reported as 3.6 nM. The EC50 [3, 7] was 2.6 nM, the CC50 [4, 10] was 10000 nM and the EC50 (HIV-1 IIIB; [9]) was 37.9 nM.

In the case of `CN(C)c1ccc(-c2ccc(C[C@H](NC(=O)[C@@H](NC(=O)C3(C#N)CC3)C(C)(C)C)[C@@H](O)C[C@@H](Cc3ccccc3F)C(=O)N[C@H]3c4cc(F)ccc4OC[C@H]3O)cc2)cn1` [Compound 53], the EC50 (HIV-1 wild-type strain; Human immunodeficiency virus 1) is reported as 2.3 nM, the EC50 [1, 5] is reported as 4.1 nM and the EC50 [2, 6] is reported as 2 nM. For the same compound, the EC50 [3, 7] was 2 nM, the CC50 [4, 8] was > 32000 nM and the EC50 (HIV-1 IIIB; [9]) was 9.5 nM.

In the case of `COC(=O)N[C@H](C(=O)N[C@@H](Cc1ccc(-c2cnc(C(C)C)s2)cc1)[C@@H](O)C[C@@H](Cc1ccccc1F)C(=O)N[C@H]1c2cc(Cl)ccc2OC[C@H]1O)C(C)(C)C` [Compound 32], the EC50 (HIV-1 wild-type strain; Human immunodeficiency virus 1) is reported as 5.9 nM, the EC50 [1, 5] is reported as 5 nM and the EC50 [2, 6] is reported as 3.7 nM. It also gave an EC50 [3, 7] of 3.1 nM, a CC50 [4, 10] of 2200 nM and an EC50 (HIV-1 IIIB; [9]) of 28.6 nM.

For `CNC(=O)[C@@H](NC(=O)[C@H](Cc1ccccc1F)C[C@H](O)[C@H](Cc1ccc(-c2ccc(N(C)C)nc2)cc1)NC(=O)[C@@H](NC(=O)OC)C(C)(C)C)C(C)(C)C` [Compound 90], the EC50 (HIV-1 wild-type strain; Human immunodeficiency virus 1) was 4.7 nM, the EC50 [1, 5] was 4.8 nM and the EC50 [2, 6] was 2.6 nM. The EC50 [3, 7] was 2.8 nM, the CC50 [4, 10] was > 32000 nM and the EC50 (HIV-1 IIIB; [9]) was 13.6 nM.

With `COC(=O)N[C@H](C(=O)N[C@@H](Cc1ccc(-c2ccc(OC)nc2)cc1)[C@@H](O)C[C@@H](Cc1ccccc1F)C(=O)N[C@H]1[C@H](C)CCC[C@H]1O)C(C)(C)C` [Compound 96] the EC50 (HIV-1 wild-type strain; Human immunodeficiency virus 1) was 0.9 nM, the EC50 [1, 5] was 0.7 nM and the EC50 [2, 6] was 0.4 nM. The EC50 [3, 7] was 0.5 nM, the CC50 [4, 8] was > 32000 nM and the EC50 (HIV-1 IIIB; [9]) was 2 nM.

Work on `CN(C)c1ccc(-c2ccc(C[C@H](NC(=O)O[C@H]3CO[C@H]4OCC[C@H]43)[C@@H](O)C[C@@H](Cc3ccccc3F)C(=O)N[C@H]3c4cc(Cl)ccc4OC[C@H]3O)cc2)cn1` [Compound 79] yielded an EC50 (HIV-1 wild-type strain; Human immunodeficiency virus 1) of 1.7 nM, an EC50 [1, 5] of 1.1 nM and an EC50 [2, 6] of 1 nM. For the same compound, the EC50 [3, 7] was 0.7 nM, the CC50 [4, 8] was > 32000 nM and the EC50 (HIV-1 IIIB; [9]) was 12.8 nM.

With `COC(=O)N[C@H](C(=O)N[C@@H](Cc1ccc(-c2cnc(N(C)C)nc2)cc1)[C@@H](O)C[C@@H](Cc1cccc(F)c1)C(=O)N[C@H]1c2cc(F)ccc2OC[C@H]1O)C(C)(C)C` [Compound 62] the EC50 (HIV-1 wild-type strain) was 3.2 nM, the EC50 [1, 11] was 2.2 nM and the EC50 [2, 12] was 1.5 nM. For the same compound, the EC50 [3, 13] was 0.9 nM, the CC50 (mock-infected MT4 cells; [8]) was > 32000 nM and the EC50 (HIV-1 IIIB) was 16.3 nM.

`COC(=O)N[C@H](C(=O)N[C@@H](Cc1ccc(-c2cc(C)nc(C)c2)cc1)[C@@H](O)C[C@@H](Cc1cccc(Cl)c1)C(=O)N[C@H]1c2ccccc2OC[C@H]1O)C(C)(C)C` [Compound 4] showed an EC50 (HIV-1 wild-type strain; Human immunodeficiency virus 1) of 5.6 nM, an EC50 [1, 5] of 3.9 nM and an EC50 [2, 6] of 3.9 nM. For the same compound, the EC50 [3, 7] was 2.7 nM, the CC50 [4, 10] was > 32000 nM and the EC50 (HIV-1 IIIB; [9]) was 31.2 nM.

Work on `COC(=O)NC(C(=O)NC(Cc1ccc(-c2cnc(C)s2)cc1)C(O)CC(Cc1ccccc1F)C(=O)NC1c2cc(Cl)ccc2OCC1O)C(C)(C)C` (centres unmarked) [Compound 11] yielded an EC50 (HIV-1 wild-type strain) of 4.2 nM, an EC50 [1, 11] of 3.9 nM and an EC50 [2, 12] of 3.5 nM. The EC50 [3, 13] was 2.1 nM, the CC50 (mock-infected MT4 cells; [10]) was > 32000 nM and the EC50 (HIV-1 IIIB) was 22.4 nM.

Compound `COC(=O)N[C@H](C(=O)N[C@@H](Cc1ccc(-c2ccc(OC)nc2)cc1)[C@@H](O)C[C@@H](Cc1ccccc1F)C(=O)N[C@H]1c2cc(Cl)cc(F)c2OC[C@H]1O)C(C)(C)C` [Compound 61] has an EC50 (HIV-1 wild-type strain) of 4.1 nM, an EC50 [1, 11] of 3 nM and an EC50 [2, 12] of 2.1 nM. The EC50 [3, 13] was 1.6 nM, the CC50 (mock-infected MT4 cells; [8]) was > 32000 nM and the EC50 (HIV-1 IIIB) was 16.1 nM.
